Data on 1 compound can be found in article PMC13043538, “In vitro thyroperoxidase inhibition assessment by LC-ICP-MS-based L-tyrosine iodination assay: comparison with Amplex Ultrared assay and its modifications” (Archives of Toxicology, 2026).

In the assay the target is T1, human TPO (Homo sapiens, UniProt P07202).
T1 construct: expressed in transfected cells; host or cells: HEK293T (HEK-TPOA7 clone), whole-cell lysate in 0.1% sodium deoxycholate
T1 sequence (P07202 19-933): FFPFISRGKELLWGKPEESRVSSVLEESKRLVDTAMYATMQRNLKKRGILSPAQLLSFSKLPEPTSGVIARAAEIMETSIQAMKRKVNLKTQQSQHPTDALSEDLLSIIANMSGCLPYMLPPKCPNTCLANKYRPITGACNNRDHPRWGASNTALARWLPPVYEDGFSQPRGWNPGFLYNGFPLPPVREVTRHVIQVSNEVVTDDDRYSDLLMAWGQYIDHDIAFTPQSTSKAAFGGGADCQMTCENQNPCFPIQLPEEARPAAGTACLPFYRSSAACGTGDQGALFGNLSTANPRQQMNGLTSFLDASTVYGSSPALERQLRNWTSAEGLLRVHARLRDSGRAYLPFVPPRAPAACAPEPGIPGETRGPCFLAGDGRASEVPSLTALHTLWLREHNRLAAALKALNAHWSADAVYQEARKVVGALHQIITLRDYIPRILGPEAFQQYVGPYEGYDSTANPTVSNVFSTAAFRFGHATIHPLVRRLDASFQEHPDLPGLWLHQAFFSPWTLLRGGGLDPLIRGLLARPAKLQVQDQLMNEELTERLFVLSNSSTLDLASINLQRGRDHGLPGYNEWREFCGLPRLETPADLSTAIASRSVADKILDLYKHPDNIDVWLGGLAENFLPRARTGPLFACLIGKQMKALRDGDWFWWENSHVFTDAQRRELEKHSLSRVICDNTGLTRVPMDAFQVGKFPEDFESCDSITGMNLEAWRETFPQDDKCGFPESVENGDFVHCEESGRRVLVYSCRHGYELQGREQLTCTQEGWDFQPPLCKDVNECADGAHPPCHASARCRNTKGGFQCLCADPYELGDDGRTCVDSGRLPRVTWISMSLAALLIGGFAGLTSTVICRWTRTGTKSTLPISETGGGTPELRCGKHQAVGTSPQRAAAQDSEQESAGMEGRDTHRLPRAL
Kind of assay: standard Amplex UltraRed (AUR) TPO assay, HEK-TPOA7 cell lysate, fluorescence. The following applies: no modification, read-out: IC50 (± standard deviation). Format: biochemical. Here is the method:
Briefly, the cells were washed with phosphate-buffered saline (PBS), scraped, resuspended in PBS, and centrifuged for 5 min at 150 rcf. […] Lysed cells were centrifuged for 5 min at 12,000 rcf to extract the soluble protein fraction. The cell lysates were kept at − 80 °C for longer-term storage.

As usually defined, the IC50 is the concentration at which inhibition is half-maximal. As for `Oc1cc(Cl)ccc1Oc1ccc(Cl)cc1Cl` [TCS, Triclosan], the IC50 came out at 199 µM.
